Data on two molecules can be found in ChEMBL document CHEMBL3044926, “Controlling powdery mildew on cucurbit rootstock seedlings in the greenhouse with fungicides and biofungicides” (Crop Prot, 2012).

Structures are written as SMILES.

Data set [1] has as its system Lagenaria siceraria. Kind of data set: Phytotoxicity against Lagenaria siceraria 'Emphasis' rootstock seedlings. It is filed as organism-based. As to conditions: in vivo.
Data set [2] relates to Cucurbita maxima x Cucurbita moschata. Kind of data set: Phytotoxicity against inter-specific squash hybrid Cucurbita moschata x Cucurbita maxima (Strong tosa) rootstock seedlings. It is filed as organism-based. Conditions: in vivo.
The subject of data set [3] is Podosphaera xanthii. Kind of data set: Fungicidal activity against Podosphaera xanthii (powdery mildew) inoculated in inter-specific squash hybrid Strong tosa (Cucurbita moschata x Cucurbita maxima) rootstock seedlings for 7 days prior to drug application assessed as disease severity at 98.2% in 11.99 g/L applied once measured 7 days post-drug dose under greenhouse conditions (water Rvb = 17.5%). It is filed as functional.

Data set [4] has as its system Podosphaera xanthii. Kind of data set: Fungicidal activity against Podosphaera xanthii (powdery mildew) inoculated in Lagenaria siceraria Emphasis continuously after first drug application assessed as disease severity on lower surface areas of cotyledons at 98.2% in 11.99 g/L applied thrice at 5-days intervals measured 5 days after third application under green house conditions (water Rvb = 13.9%). It is filed as functional.

For data set [5], the system named is Podosphaera xanthii. Put plainly: Fungicidal activity against Podosphaera xanthii (powdery mildew) inoculated in squash (Cucurbita pepo) rootstock seedlings continuously after first drug application assessed as disease severity at 98.2% in 11.99 g/L applied thrice at 5-days intervals measured 5 days after third application under green house conditions (water Rvb = 3.9%). It is filed as functional.

For data set [6], the system named is Podosphaera xanthii. Kind of data set: Fungicidal activity against Podosphaera xanthii (powdery mildew) inoculated in Lagenaria siceraria Emphasis continuously after first drug application assessed as disease severity on upper surface areas of cotyledons at 98.2% in 11.99 g/L applied thrice at 5-days intervals measured 5 days after third application under green house conditions (water Rvb = 36.8%). It is filed as functional.

The test system of data set [7] is Podosphaera xanthii. Kind of data set: Fungicidal activity against Podosphaera xanthii (powdery mildew) inoculated in inter-specific squash hybrid Strong tosa (Cucurbita moschata x Cucurbita maxima) rootstock seedlings for 7 days prior to drug application assessed as incidence of disease symptoms on hypocotyls or upper or lower sides of cotyledons at 98.2% in 11.99 g/L applied once measured 7 days post-drug dose under greenhouse …. It is filed as functional.

In data set [8] the test system is Podosphaera xanthii. Put plainly: Fungicidal activity against Podosphaera xanthii (powdery mildew) inoculated in squash (Cucurbita pepo) rootstock seedlings continuously after first drug application assessed as incidence of disease symptoms on hypocotyls or upper or lower sides of cotyledons at 98.2% in 11.99 g/L applied thrice at 5-days intervals measured 5 days after third application under green house conditions (water Rvb = …. It is filed as functional.

The subject of data set [9] is Podosphaera xanthii. Put plainly: Fungicidal activity against Podosphaera xanthii (powdery mildew) inoculated in inter-specific squash hybrid Strong tosa (Cucurbita moschata x Cucurbita maxima) rootstock seedlings for 7 days prior to drug application assessed as disease severity on upper surface areas of cotyledonsat 98.2% in 11.99 g/L applied once measured 7 days post-drug dose under greenhouse conditions (water Rvb = 10.2%). It is filed as functional.

Data set [10] relates to Podosphaera xanthii. Put plainly: Fungicidal activity against Podosphaera xanthii (powdery mildew) inoculated in Lagenaria siceraria Emphasis continuously after first drug application assessed as disease severity at 98.2% in 11.99 g/L applied thrice at 5-days intervals measured 5 days after third application under green house conditions (water Rvb = 53.5%). It is filed as functional.

Data set [11] deals with Podosphaera xanthii. Kind of data set: Fungicidal activity against Podosphaera xanthii (powdery mildew) inoculated in Lagenaria siceraria Emphasis continuously after first drug application assessed as incidence of disease symptoms on hypocotyls or upper or lower sides of cotyledons at 98.2% in 11.99 g/L applied thrice at 5-days intervals measured 5 days after third application under green house conditions (water Rvb = 100%). It is filed as functional.

For data set [12], the system named is Cucurbita maxima x Cucurbita moschata. Put plainly: Phytotoxicity against inter-specific squash hybrid Cucurbita moschata x Cucurbita maxima (Strong tosa) rootstock seedlings assessed as stunting. It is filed as organism-based. As to conditions: in vivo.
Data set [13] deals with Lagenaria siceraria. Kind of data set: Phytotoxicity against Lagenaria siceraria 'Emphasis' rootstock seedlings assessed as stunting. It is filed as organism-based. As to conditions: in vivo.
The subject of data set [14] is Podosphaera xanthii. Kind of data set: Fungicidal activity against Podosphaera xanthii (powdery mildew) inoculated in inter-specific squash hybrid Strong tosa (Cucurbita moschata x Cucurbita maxima) rootstock seedlings for 7 days prior to drug application assessed as disease severity on lower surface areas of cotyledonsat 98.2% in 11.99 g/L applied once measured 7 days post-drug dose under greenhouse conditions (water Rvb = 5.1%). It is filed as functional.

In data set [15] the test system is Lagenaria siceraria. Kind of data set: Phytotoxicity against Lagenaria siceraria 'Emphasis' rootstock seedlings assessed as seedlings with stunted growth. It is filed as organism-based. Conditions: in vivo.
Data set [16] deals with Cucurbita maxima x Cucurbita moschata. Put plainly: Phytotoxicity against inter-specific squash hybrid Cucurbita moschata x Cucurbita maxima (Strong tosa) rootstock seedlings assessed as seedlings with stunted growth. It is filed as organism-based. As to conditions: in vivo.
The test system of data set [17] is Lagenaria siceraria. Kind of data set: Phytotoxicity against Lagenaria siceraria 'Emphasis' rootstock seedlings assessed as stunted growth. It is filed as organism-based. Conditions: in vivo.
The test system of data set [18] is Cucurbita maxima x Cucurbita moschata. Put plainly: Phytotoxicity against inter-specific squash hybrid Cucurbita moschata x Cucurbita maxima (Strong tosa) rootstock seedlings assessed as stunted growth. Conditions: in vivo. It is filed as organism-based.
The test system of data set [19] is Podosphaera xanthii. Kind of data set: Fungicidal activity against Podosphaera xanthii (powdery mildew) inoculated in Lagenaria siceraria Emphasis continuously after first drug application assessed as disease severity on lower surface areas of cotyledons at 38.7% in 0.62 ml/L applied thrice at 5-days intervals measured 5 days after third application under green house conditions (water Rvb = 13.9%). It is filed as functional.

The test system of data set [20] is Podosphaera xanthii. Kind of data set: Fungicidal activity against Podosphaera xanthii (powdery mildew) inoculated in inter-specific squash hybrid Strong tosa (Cucurbita moschata x Cucurbita maxima) rootstock seedlings for 7 days prior to drug application assessed as disease severity at 38.7% in 0.62 ml/L applied once measured 7 days post-drug dose under greenhouse conditions (water Rvb = 17.5%). It is filed as functional.

Data set [21] has as its system Podosphaera xanthii. Put plainly: Fungicidal activity against Podosphaera xanthii (powdery mildew) inoculated in Lagenaria siceraria Emphasis continuously after first drug application assessed as disease severity on upper surface areas of cotyledons at 38.7% in 0.62 ml/L applied thrice at 5-days intervals measured 5 days after third application under green house conditions (water Rvb = 36.8%). It is filed as functional.

Data set [22] has as its system Podosphaera xanthii. Put plainly: Fungicidal activity against Podosphaera xanthii (powdery mildew) inoculated in inter-specific squash hybrid Strong tosa (Cucurbita moschata x Cucurbita maxima) rootstock seedlings continuously after first drug application assessed as disease severity at 38.7% in 0.62 ml/L applied thrice at 5-days intervals measured 5 days after third application under green house conditions (water Rvb = 4.2%). It is filed as functional.

The test system of data set [23] is Podosphaera xanthii. Kind of data set: Fungicidal activity against Podosphaera xanthii (powdery mildew) inoculated in inter-specific squash hybrid Strong tosa (Cucurbita moschata x Cucurbita maxima) rootstock seedlings for 7 days prior to drug application assessed as incidence of disease symptoms on hypocotyls or upper or lower sides of cotyledons at 38.7% in 0.62 ml/L applied once measured 7 days post-drug dose under greenhouse …. It is filed as functional.

The test system of data set [24] is Podosphaera xanthii. Kind of data set: Fungicidal activity against Podosphaera xanthii (powdery mildew) inoculated in squash (Cucurbita pepo) rootstock seedlings continuously after first drug application assessed as disease severity at 38.7% in 0.62 ml/L applied thrice at 5-days intervals measured 5 days after third application under green house conditions (water Rvb = 3.9%). It is filed as functional.

The subject of data set [25] is Podosphaera xanthii. Put plainly: Fungicidal activity against Podosphaera xanthii (powdery mildew) inoculated in inter-specific squash hybrid Strong tosa (Cucurbita moschata x Cucurbita maxima) rootstock seedlings continuously after first drug application assessed as incidence of disease symptoms on hypocotyls or upper or lower sides of cotyledons at 38.7% in 0.62 ml/L applied thrice at 5-days intervals measured 5 days after …. It is filed as functional.

Data set [26] relates to Podosphaera xanthii. Kind of data set: Fungicidal activity against Podosphaera xanthii (powdery mildew) inoculated in squash (Cucurbita pepo) rootstock seedlings continuously after first drug application assessed as incidence of disease symptoms on hypocotyls or upper or lower sides of cotyledons at 38.7% in 0.62 ml/L applied thrice at 5-days intervals measured 5 days after third application under green house conditions (water Rvb = …. It is filed as functional.

Data set [27] has as its system Podosphaera xanthii. Put plainly: Fungicidal activity against Podosphaera xanthii (powdery mildew) inoculated in inter-specific squash hybrid Strong tosa (Cucurbita moschata x Cucurbita maxima) rootstock seedlings for 7 days prior to drug application assessed as disease severity on upper surface areas of cotyledonsat 38.7% in 0.62 ml/L applied once measured 7 days post-drug dose under greenhouse conditions (water Rvb = 10.2%). It is filed as functional.

Data set [28] relates to Podosphaera xanthii. Put plainly: Fungicidal activity against Podosphaera xanthii (powdery mildew) inoculated in Lagenaria siceraria Emphasis continuously after first drug application assessed as disease severity at 38.7% in 0.62 ml/L applied thrice at 5-days intervals measured 5 days after third application under green house conditions (water Rvb = 53.5%). It is filed as functional.

The subject of data set [29] is Podosphaera xanthii. Kind of data set: Fungicidal activity against Podosphaera xanthii (powdery mildew) inoculated in Lagenaria siceraria Emphasis continuously after first drug application assessed as incidence of disease symptoms on hypocotyls or upper or lower sides of cotyledons at 38.7% in 0.62 ml/L applied thrice at 5-days intervals measured 5 days after third application under green house conditions (water Rvb = 100%). It is filed as functional.

Data set [30] deals with Podosphaera xanthii. Kind of data set: Fungicidal activity against Podosphaera xanthii (powdery mildew) inoculated in inter-specific squash hybrid Strong tosa (Cucurbita moschata x Cucurbita maxima) rootstock seedlings for 7 days prior to drug application assessed as disease severity on lower surface areas of cotyledonsat 38.7% in 0.62 ml/L applied once measured 7 days post-drug dose under greenhouse conditions (water Rvb = 5.1%). It is filed as functional.

Consider `S1SSSSSSS1` [SULFUR], for which the Activity entry in data set [1] is reported as “Non-toxic”; in data set [2] it was “Non-toxic”; in [3] it was 0.9%; in data set [4] it was 0.7%; in data set [5] it was 0.02%; in data set [6], 3%. Besides, the Activity in [7] was 14.6%; in data set [8] it was 0%; in data set [9], 0.03%; in data set [10] it was 3.7%; in [11], 34.9%; in data set [12], “Non-toxic”. In addition, the Activity result in [13] was “Non-toxic”; in [14], 0.7%.

Take `CC(C)(C)C(O)(CCc1ccc(Cl)cc1)Cn1cncn1` (stereo not given) [TEBUCONAZOLE]: the Activity in data set [15] came to 100%; in [16], 71%; in [19] it was 0%; in data set [20] it was 0.5%; in data set [21] it was 0.5%; in [22], 0.005%. The Activity in [23] is on record as 34.9%; in data set [24] it was 0%; in data set [25] it was 0%; in [26] it was 0%; in data set [27], 0.2%; in data set [28] it was 0.7%. Also, the Activity in data set [29] came out at 5.6%; in data set [30] it was 0.2%. The “inhibition (INH)” value in data set [17] and in [18] was 33% throughout.
